Test results: US10195242B2, “Therapeutic compounds” (Wintermute Biomedical, Inc., priority 2013, dated 2019)

Assays:
Assay type in all cases: cell-based
Conditions in all cases: twenty-four hours after inoculation, combination assay
[1] = system: Streptococcus pyogenes (Group A beta hemolytic strep); assay: In vitro growth inhibition on SBA plates
Experimental: (§1) In vitro testing was conducted to measure the efficacy of WT13-12 at inhibiting the growth of clinically relevant bacteria. […] WT13-12 was streaked across half of a sheep blood agar (SBA) plate and allowed to dry for 15 minutes. The other side was streaked with the vehicle but not containing WT13-12. After drying, 50 μL of purified bacteria at 100,000 col/mL was streaked onto the control and treated sides of the sheep blood agar plates. After streaking, the plates were incubated at 37° C. for 48 hours. Growth was assessed at 24 and 48 hours post-inoculation. Percent inhibition was determined by measuring the treated side vs. the control side with the control side set at 100% growth.
(§2) Each component of WT13-12 was tested individually or in paired combination in the in vitro bacterial growth inhibition assay described above to determine the relative contribution of each component.

[2] = system: Streptococcus agalactiae (Group B beta strep); assay: In vitro growth inhibition on SBA plates
Experimental: as §1, §2

[3] = system: methicillin-resistant Staphylococcus aureus (MRSA); assay: In vitro growth inhibition on sheep blood agar (SBA) plates
Experimental: as §1, §2

Row | SMILES | growth inhibition of S. pyogenes versus control [1] | growth inhibition of S. agalactiae versus control [2] | growth inhibition of MRSA versus control [3]
1 | C=CCCCCCCCCC(=O)O [undecylenic acid] | significant inhibitory effects | significant effect | no effect
2 | N=C(N)NCCC[C@H](N)C(=O)O [L-Arginine] | – | – | no effect
